{"source": "patent US20170216179A1", "about": "“COSMETIC AND/OR DERMATOLOGICAL COMPOSITION FOR COLOURING THE SKIN” (AFFICHEM, priority 2014, published 2017)", "key": {"tyrosinase [1]": {"tested_on": "tyrosinase", "experiment": "Gene expression by RT-qPCR, tyrosinase", "assay_type": "cell-based, murine", "details": "1 μM, 24 h", "protocol": "(§1) Cells were seeded and treated for 24 h with the molecules the action of which we want to study, that is to say here, with DDA (1 μM), on the one hand, and with L7DDA (0.1 or 1 or 2.5 or 5 μM) on the other. The results were compared with irradiated ultraviolet cells as in Example 6.\n(§2) To quantify the expression of these genes, RNA extraction from cells was performed. Melanocytes were treated for 24 h with the active molecule or the control agent. 1 mL of Trizol® was added; after 5 min at room temperature, the totality was placed in an Eppendorf tube. 200 μL of CHCl3 were added at 4° C. The Eppendorf tubes were stirred manually, by turning them during 15 sec, left for 5 min at room temperature and then centrifuged at 16000 g at 4° C. for 10 min. The colourless aqueous phase was isolated. 500 μL of isopropanol (−20° C.) were added. The Eppendorf tubes were stirred manually, by turning them during 15 sec, left for 15 min at room temperature and then centrifuged at 16200 g at 4° C. for 10 min. The supernatant was removed. The pellet was washed with 1 mL of 75% ethanol (−20° C.). After centrifugation at 16000 g at 4° C. for 5 min, the supernatant was removed. 10 min after drying, the pellet was resuspended with 30 μL of RNAase-free water. The quantity and purity of RNA were estimated by spectrophotometry (230, 260 and 280 nm). […]"}, "tyrosinase [2]": {"tested_on": "tyrosinase", "experiment": "Stimulation of tyrosinase activity in melanocytes (L-DOPA oxidation)", "assay_type": "cell-based, murine", "details": "cells treated 24 h; with respect to the control (=100%); FIG. 4", "protocol": "The study was conducted on healthy murine melanocytes. The results were compared with those obtained with a positive control subjected to a dose of 20 mJ/cm^2 of ultraviolet radiation. The cells were treated for 24 h with either the vehicle used (ethanol) or with the test product. The tyrosinase activity was quantified according to the protocol described by Ando et al. (J. Lipid Res. 1999, 40, 1312) as explained below.\n5 Million cells were isolated after centrifugation at 1500 rpm for 5 min at 4° C. The pellet was washed twice with PBS and then transferred into an Eppendorf tube and centrifuged at 5000 g for 5 min. The supernatant was removed. 1 mL of 0.5% by mass sodium deoxycholate solution was added (cell lysis). After 15 min at 0° C., 3 mL of a solution of 0.1% by mass of L-DOPA in 0.1M phosphate buffer (pH 6.8) were added. The whole was placed at 37° C. for 10 min. Tyrosinase activity was spectrophotometrically analysed by following the oxidation of L-DOPA to DOPAchrome. Absorbance was measured at 475 nm. The tyrosinase activity was expressed based on the control (=100%), which determines the cell basal tyrosinase activity."}, "TRP-2": {"tested_on": "TRP-2", "experiment": "Gene expression by RT-qPCR, TRP-2", "assay_type": "cell-based, murine", "details": "1 μM, 24 h", "protocol": "as §1, §2"}, "TRP-1": {"tested_on": "TRP-1", "experiment": "Gene expression by RT-qPCR, TRP-1", "assay_type": "cell-based, murine", "details": "1 μM, 24 h", "protocol": "as §1, §2"}, "[3]": {"tested_on": "healthy murine melanocytes", "experiment": "Quantification of melanin synthesized by melanocytes", "assay_type": "cell-based", "details": "cells treated 24 h; relative to control (=100%); FIG. 3", "protocol": "Quantification of synthesized melanin by healthy murine melanocytes was performed according to the protocol described by Ando et al. (J. Lipid Res., 1999, 40, 1312).\nCells were seeded and treated for 24 h with the test product or the used vehicle (ethanol) and with, as a positive control, exposure to a dose of 20 mJ/cm^2 of ultraviolet radiation.\n5 Million cells were isolated after centrifugation at 1500 rpm for 5 min at 4° C. The pellet was washed twice with PBS and then transferred into an Eppendorf tube and centrifuged at 5000 g for 5 min. The supernatant was removed. 200 μL of water and 1 mL of EtOH/ether (1/1) were added (melanin was insoluble in this mixture). After 15 min at room temperature, the totality was again centrifuged at 5000 g for 5 min; the supernatant was removed. The pellet was then taken up with 300 μL of a solution of NaOH(1M) in H2O/DMSO 90/10 and placed at 80° C. for one hour. Absorbance was measured at 470 nm. The amount of synthesized melanin was expressed based on the control (=100%)."}}}
{"smiles": "CC(C)CCC[C@@H](C)[C@H]1CC[C@H]2[C@@H]3C[C@@H](NCCc4c[nH]cn4)[C@@]4(O)C[C@@H](O)CC[C@]4(C)[C@H]3CC[C@]12C", "note": "[DDA, 5α-hydroxy-6β-[2-(1H-imidazol-4-yl)ethylamino]cholestan-3β-ol]", "values": [{"measurement": "ΔΔCT (tyrosinase)", "setting": "tyrosinase [1]", "result": 6.09}, {"measurement": "tyrosinase activity in cells", "setting": "tyrosinase [2]", "result": "increased"}, {"measurement": "ΔΔCT (TRP-2)", "setting": "TRP-2", "result": 6.97}, {"measurement": "ΔΔCT (TRP-1)", "setting": "TRP-1", "result": 13.45}, {"measurement": "synthesis of melanin", "setting": "[3]", "result": "increase"}]}
